± gives the expanded uncertainty stated by the source.
Test: molar heat capacity at constant pressure; xn = mol fraction of the nth substance listed
Settings: 101 kPa, Liquid, Vacuum adiabatic calorimetry

CC#N [acetonitrile] + O
molar heat capacity at constant pressure [J/K/mol]
Settings	283.15 K	298.15 K	313.15 K	328.15 K
x1 = 0.0112	76.78 ± 0.21	76.64 ± 0.21	76.74 ± 0.21	76.89 ± 0.21
x1 = 0.0194	77.58 ± 0.22	77.54 ± 0.22	77.7 ± 0.22	77.9 ± 0.22
x1 = 0.0286	78.38 ± 0.22	78.45 ± 0.22	78.67 ± 0.22	78.89 ± 0.22
x1 = 0.0383	79.1 ± 0.22	79.27 ± 0.22	79.51 ± 0.22	79.77 ± 0.22
x1 = 0.0497	79.91 ± 0.22	80.02 ± 0.22	80.18 ± 0.22	80.51 ± 0.22
x1 = 0.0611	80.52 ± 0.22	80.57 ± 0.22	80.8 ± 0.22	81 ± 0.22
x1 = 0.0702	80.89 ± 0.22	80.95 ± 0.22	81.21 ± 0.22	81.46 ± 0.22
x1 = 0.0804	81.26 ± 0.22	81.33 ± 0.22	81.57 ± 0.22	81.9 ± 0.22
x1 = 0.091	81.66 ± 0.22	81.73 ± 0.22	81.99 ± 0.22	82.33 ± 0.22
x1 = 0.1007	81.99 ± 0.22	82.06 ± 0.22	82.36 ± 0.22	82.7 ± 0.22
x1 = 0.2124	85.36 ± 0.22	85.66 ± 0.22	86.24 ± 0.22	86.82 ± 0.22
x1 = 0.3063	87.72 ± 0.22	88.31 ± 0.22	89.08 ± 0.22	89.92 ± 0.22
x1 = 0.3987	89.89 ± 0.22	90.7 ± 0.23	91.59 ± 0.23	92.56 ± 0.23
x1 = 0.4856	91.57 ± 0.23	92.38 ± 0.23	93.42 ± 0.23	94.38 ± 0.23
x1 = 0.6011	93.03 ± 0.23	93.96 ± 0.23	94.89 ± 0.23	95.86 ± 0.23
x1 = 0.7107	93.7 ± 0.23	94.44 ± 0.23	95.33 ± 0.23	96.16 ± 0.23
x1 = 0.8024	93.56 ± 0.23	94.16 ± 0.23	94.79 ± 0.23	95.62 ± 0.23
x1 = 0.9005	92.77 ± 0.23	93.28 ± 0.23	93.87 ± 0.23	94.55 ± 0.23
x1 = 0.9091	92.66 ± 0.23	93.17 ± 0.23	93.75 ± 0.23	94.42 ± 0.23
x1 = 0.9203	92.52 ± 0.23	93.01 ± 0.23	93.59 ± 0.23	94.24 ± 0.23
x1 = 0.9316	–	92.85 ± 0.23	93.41 ± 0.23	94.06 ± 0.23
x1 = 0.9402	92.25 ± 0.23	92.73 ± 0.23	93.29 ± 0.23	93.94 ± 0.23
x1 = 0.9496	92.11 ± 0.23	92.59 ± 0.23	93.14 ± 0.23	93.77 ± 0.23
x1 = 0.9604	91.94 ± 0.23	92.4 ± 0.23	92.95 ± 0.23	93.58 ± 0.23
x1 = 0.9711	91.77 ± 0.23	92.22 ± 0.23	92.76 ± 0.23	93.38 ± 0.23
x1 = 0.9803	91.61 ± 0.23	92.06 ± 0.23	92.59 ± 0.23	93.21 ± 0.23
x1 = 0.991	91.42 ± 0.23	91.87 ± 0.23	92.39 ± 0.23	93 ± 0.23
x1 = 1	91.25 ± 0.23	91.69 ± 0.23	92.21 ± 0.23	92.82 ± 0.23

O [water] + CC#N
x2 = 0
Settings	molar heat capacity at constant pressure [J/K/mol]
283.15 K	75.52 ± 0.21
298.15 K	75.29 ± 0.21
313.15 K	75.27 ± 0.21
328.15 K	75.34 ± 0.21

— the NIST ThermoML archive (doi:10.1016/j.jct.2010.04.019)
